Reference: ChEMBL document CHEMBL5120954, “Novel MRGX2 Antagonists for Treating Diseases” (ACS Med Chem Lett, 2022)

target: T1, Mas-related G-protein coupled receptor member X2 (Homo sapiens, UniProt Q96LB1); assay: Antagonist activity at human MRGPRX2 expressed in HEK293 cells co-expressing mouse Galpha15 assessed as inhibition of Cortistatin-14 induced Ca2+ mobilization preincubated for 30 mins followed by Cortistatin-14 addition by FLIPRtetra-calcium mobilization assay; format: functional, cell-based
T1 sequence (Q96LB1 whole entry): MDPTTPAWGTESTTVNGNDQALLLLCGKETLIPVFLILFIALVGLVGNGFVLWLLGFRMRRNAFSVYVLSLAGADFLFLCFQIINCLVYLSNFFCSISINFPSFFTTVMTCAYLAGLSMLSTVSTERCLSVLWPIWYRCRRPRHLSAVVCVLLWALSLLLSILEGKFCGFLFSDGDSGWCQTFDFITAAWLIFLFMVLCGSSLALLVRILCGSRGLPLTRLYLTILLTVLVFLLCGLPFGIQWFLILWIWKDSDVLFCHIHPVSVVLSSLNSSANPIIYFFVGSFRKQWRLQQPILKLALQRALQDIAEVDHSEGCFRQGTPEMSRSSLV

IC50, ≤ 10 nM:
CC(C(=O)Nc1ccc(Oc2cnc(F)cc2Cl)cn1)N1CCC(F)(F)[C@@H](c2ccc(=O)[nH]c2)C1 (stereo not given in full), CC(C(=O)Nc1ccc(Oc2ccc(F)cc2)cn1)C1CCC(F)(F)C(c2ccc(=O)[nH]c2)C1 (stereo not given), CC(C(=O)Nc1ccc(Oc2ccccc2)cn1)N1CCC(F)(F)[C@@H](c2c[nH]c(=O)c(CN)c2)C1 (stereo not given in full), CC(C(=O)Nc1ccc(Oc2ccc(F)cc2)cn1)N1CCC(F)(F)C(c2c[nH]c(=O)c(CNCCO)c2)C1 (stereo not given), C[C@@H](C(=O)Nc1ccc(Oc2ccc(F)cc2F)cn1)N1CCC(F)(F)[C@@H](c2c[nH]c(=O)c(CS(C)(=O)=O)c2)C1
